Measurements: ChEMBL document CHEMBL1159013, “Additional bioactive compounds and trilobacin, a novel highly cytotoxic acetogenin, from the bark of Asimina triloba” (J Nat Prod, 1992)
Values after ≈ are worked out from the molar mass of the structure shown.

Columns and labels:
A549 [1] = test: Growth inhibition of human A549 cells after 3 days; format: functional; details: A549, 72 h
EKVX = test: Growth inhibition of human EKVX cells after 3 days; format: functional; details: 72 h
HOP-62 = test: Growth inhibition of human HOP62 cells after 3 days; format: functional; details: HOP-62, 72 h
HOP-92 = test: Growth inhibition of human HOP92 cells after 3 days; format: functional; details: HOP-92, 72 h
NCI-H322M = test: Growth inhibition of human NCI-H322M cells after 3 days; format: functional; details: 72 h
NCI-H460 = test: Growth inhibition of human NCI-H460 cells after 3 days; format: functional; details: NCI-H460, 72 h
[2] = Growth inhibition of human LXFL529 cells after 3 days; format: functional; details: LXFL 529, 72 h
DMS-273 = test: Growth inhibition of human DMS273 cells after 3 days; format: functional; details: DMS-273, 72 h
COLO 205 = test: Growth inhibition of human COLO205 cells after 3 days; format: functional; details: COLO 205, 72 h
DLD-1 = test: Growth inhibition of human DLD1 cells after 3 days; format: functional; details: DLD-1, 72 h
HCC 2998 = test: Growth inhibition of human HCC2998 cells after 3 days; format: functional; details: HCC 2998, 72 h
HT-29 [3] = test: Growth inhibition of human HT-29 cells after 3 days; format: functional; details: HT-29, 72 h
KM-20L2 = test: Growth inhibition of human KM20L2 cells after 3 days; format: functional; details: KM-20L2, 72 h
SW-620 = test: Growth inhibition of human SW620 cells after 3 days; format: functional; details: SW-620, 72 h
SF-268 = test: Growth inhibition of human SF268 cells after 3 days; format: functional; details: SF-268, 72 h
SF-539 = test: Growth inhibition of human SF539 cells after 3 days; format: functional; details: SF-539, 72 h
SNB-75 = test: Growth inhibition of human SNB75 cells after 3 days; format: functional; details: SNB-75, 72 h
SNB-78 = test: Growth inhibition of human SNB78 cells after 3 days; format: functional; details: SNB-78, 72 h
U-251 = test: Growth inhibition of human U251 cells after 3 days; format: functional; details: U-251, 72 h
XF498 = test: Growth inhibition of human XF498 cells after 3 days; format: functional; details: XF498, 72 h
LOX IMVI = test: Growth inhibition of human LOXIMVI cells after 3 days; format: functional; details: 72 h
Malme-3M = test: Growth inhibition of human MALME-3M cells after 3 days; format: functional; details: 72 h
M14 = test: Growth inhibition of human M14 cells after 3 days; format: functional; details: M14, 72 h
M19-MEL = test: Growth inhibition of human M19-MEL cells after 3 days; format: functional; details: 72 h
SK-MEL-2 = test: Growth inhibition of human SK-MEL-2 cells after 3 days; format: functional; details: SK-MEL-2, 72 h
SK-MEL-28 = test: Growth inhibition of human SK-MEL-28 cells after 3 days; format: functional; details: SK-MEL-28, 72 h
UACC-62 = test: Growth inhibition of human UACC62 cells after 3 days; format: functional; details: UACC-62, 72 h
IGROV-1 = test: Growth inhibition of human IGROV1 cells after 3 days; format: functional; details: IGROV-1, 72 h
OVCAR-3 = test: Growth inhibition of human OVCAR-3 cells after 3 days; format: functional; details: OVCAR-3, 72 h
OVCAR-5 = test: Growth inhibition of human OVCAR5 cells after 3 days; format: functional; details: OVCAR-5, 72 h
OVCAR-8 = test: Growth inhibition of human OVCAR8 cells after 3 days; format: functional; details: OVCAR-8, 72 h
SK-OV-3 = test: Growth inhibition of human SKOV3 cells after 3 days; format: functional; details: SK-OV-3, 72 h
786-0 = test: Growth inhibition of human 786-0 cells after 3 days; format: functional; details: 786-0, 72 h
A498 = test: Growth inhibition of human A498 cells after 3 days; format: functional; details: A498, 72 h
CAKI-1 = test: Growth inhibition of human Caki1 cells after 3 days; format: functional; details: CAKI-1, 72 h
[4] = Growth inhibition of human RXF631 cells after 3 days; format: functional; details: RXF 631, 72 h
SN12C = test: Growth inhibition of human SN12C cells after 3 days; format: functional; details: 72 h
TK-10 = test: Growth inhibition of human TK10 cells after 3 days; format: functional; details: TK-10, 72 h
A549 [5] = test: Cytotoxicity against human A549 cells after 7 days; format: functional; details: for EC50: Homo sapiens, A549, 168 h, read-out: ED50 (the source's name)
[6] = Toxicity against brine shrimp larvae; format: organism-based; details: artemia, in vivo
MCF7 = test: Cytotoxicity against human MCF7 cells after 7 days; format: functional; details: MCF7, 168 h, read-out: ED50 (the source's name)
HT-29 [7] = test: Cytotoxicity against human HT-29 cells after 7 days; format: functional; details: for EC50: Homo sapiens, HT-29, 168 h, read-out: ED50 (the source's name)
CCRF-CEM = test: Growth inhibition of human CCRF-CEM cells after 3 days; format: functional; details: 72 h
MOLT-4 = test: Growth inhibition of human MOLT4 cells after 3 days; format: functional; details: MOLT-4, 72 h
SR = test: Growth inhibition of human SR cells after 3 days; format: functional; details: 72 h

Q: For CCCCCCCCCC[C@@H](O)[C@H]1CC[C@@H]([C@H]2CC[C@H]([C@H](O)CCCCCCCCCC[C@@H](O)CC3=C[C@H](C)OC3=O)O2)O1 [TRILOBACIN], which GI50 (A549 [1]) is on record?
A: 0.00164 ng/mL (≈ 0.00263 nM)

Q: And the GI50 (EKVX)?
A: 0.002 ng/mL (≈ 0.00321 nM)

Q: And the GI50 (HOP-62)?
A: 0.00234 ng/mL (≈ 0.00376 nM)

Q: And the GI50 (HOP-92)?
A: 0.00276 ng/mL (≈ 0.00443 nM)

Q: What about the GI50 (NCI-H322M) of the same compound?
A: 4060 nM

Q: And the GI50 (NCI-H460)?
A: 0.00293 ng/mL (≈ 0.0047 nM)

Q: What about the GI50 [2] of the same compound?
A: 0.00217 ng/mL (≈ 0.00348 nM)

Q: What about the GI50 (DMS-273) of the same compound?
A: 0.00177 ng/mL (≈ 0.00284 nM)

Q: What about the GI50 (COLO 205) of the same compound?
A: 0.00349 ng/mL (≈ 0.0056 nM)

Q: And the GI50 (DLD-1)?
A: 0.0027 ng/mL (≈ 0.00433 nM)

Q: And the GI50 (HCC 2998)?
A: 0.00292 ng/mL (≈ 0.00469 nM)

Q: And the GI50 (HT-29 [3])?
A: 0.00216 ng/mL (≈ 0.00347 nM)

Q: And the GI50 (KM-20L2)?
A: 0.00375 ng/mL (≈ 0.00602 nM)

Q: What about the GI50 (SW-620) of the same compound?
A: 2640 nM

Q: What about the GI50 (SF-268) of the same compound?
A: 1700 nM

Q: What about the GI50 (SF-539) of the same compound?
A: 0.00138 ng/mL (≈ 0.00222 nM)

Q: And the GI50 (SNB-75)?
A: 0.00319 ng/mL (≈ 0.00512 nM)

Q: What about the GI50 (SNB-78) of the same compound?
A: 2050 nM

Q: And the GI50 (U-251)?
A: 4330 nM

Q: What about the GI50 (XF498) of the same compound?
A: 0.00203 ng/mL (≈ 0.00326 nM)

Q: And the GI50 (LOX IMVI)?
A: 0.0012 ng/mL (≈ 0.00193 nM)

Q: And the GI50 (Malme-3M)?
A: 0.00144 ng/mL (≈ 0.00231 nM)

Q: And the GI50 (M14)?
A: 0.0104 ng/mL (≈ 0.0167 nM)

Q: And the GI50 (M19-MEL)?
A: 0.00263 ng/mL (≈ 0.00422 nM)

Q: What about the GI50 (SK-MEL-2) of the same compound?
A: 0.00228 ng/mL (≈ 0.00366 nM)

Q: And the GI50 (SK-MEL-28)?
A: 0.00201 ng/mL (≈ 0.00323 nM)

Q: What about the GI50 (UACC-62) of the same compound?
A: 2670 nM

Q: And the GI50 (IGROV-1)?
A: 0.00481 ng/mL (≈ 0.00772 nM)

Q: What about the GI50 (OVCAR-3) of the same compound?
A: 0.00109 ng/mL (≈ 0.00175 nM)

Q: What about the GI50 (OVCAR-5) of the same compound?
A: 4330 nM

Q: What about the GI50 (OVCAR-8) of the same compound?
A: 0.00293 ng/mL (≈ 0.0047 nM)

Q: And the GI50 (SK-OV-3)?
A: 8200 nM

Q: What about the GI50 (786-0) of the same compound?
A: 0.0022 ng/mL (≈ 0.00353 nM)

Q: What about the GI50 (A498) of the same compound?
A: 0.00686 ng/mL (≈ 0.011 nM)

Q: And the GI50 (CAKI-1)?
A: 0.00883 ng/mL (≈ 0.0142 nM)

Q: And the GI50 [4]?
A: 1800 nM

Q: And the GI50 (SN12C)?
A: 1640 nM

Q: What about the GI50 (TK-10) of the same compound?
A: 7000 nM

Q: What about the ED50 (A549 [5]) of the same compound?
A: 8.02 ×10⁻⁴ ug/ml

Q: And the LC50 [6]?
A: 8.7 ng/mL (≈ 14 nM)

Q: And the EC50 (MCF7)?
A: 329 ng/mL (≈ 528 nM)

Q: And the ED50 (HT-29 [7])?
A: <1 ×10⁻¹⁵ ug/ml

Q: What about the GI50 (CCRF-CEM) of the same compound?
A: 0.0017 ng/mL (≈ 0.00273 nM)

Q: And the GI50 (MOLT-4)?
A: 0.00116 ng/mL (≈ 0.00186 nM)

Q: What about the GI50 (SR) of the same compound?
A: 1090 nM

Q: Which EC50 (A549 [5]) does the source give for O=C(/C=C/c1ccc(O)cc1)NCCc1ccc(O)cc1 [N-P-COUMAROYL TYRAMINE] here?
A: 3240 ng/mL (≈ 11400 nM)

Q: What about the LC50 [6] of the same compound?
A: 6700 ng/mL (≈ 23600 nM)

Q: And the EC50 (MCF7)?
A: 716 ng/mL (≈ 2530 nM)

Q: What about the EC50 (HT-29 [7]) of the same compound?
A: 674 ng/mL (≈ 2380 nM)

Q: Which EC50 (A549 [5]) does the source give for COc1cc(/C=C/C(=O)NCCc2ccc(O)cc2)ccc1O [N-TRANS-FERULOYL TYRAMINE] here?
A: 13400 ng/mL (≈ 42600 nM)

Q: And the LC50 [6]?
A: 6700 ng/mL (≈ 21400 nM)

Q: And the EC50 (MCF7)?
A: 4760 ng/mL (≈ 15200 nM)

Q: And the EC50 (HT-29 [7])?
A: 23600 ng/mL (≈ 75300 nM)

Q: With COc1cc([C@H]2OC[C@H]3[C@@H]2CO[C@@H]3c2cc(OC)c(O)c(OC)c2)cc(OC)c1O [SYRINGARESINOL] as the compound, how does the EC50 (A549 [5]) read?
A: 14900 ng/mL (≈ 35600 nM)

Q: What about the LC50 [6] of the same compound?
A: 13600 ng/mL (≈ 32500 nM)

Q: And the EC50 (MCF7)?
A: 3690 ng/mL (≈ 8820 nM)

Q: And the EC50 (HT-29 [7])?
A: 15500 ng/mL (≈ 37000 nM)
